From ChEMBL document CHEMBL1141040, “Isolation, structure elucidation, preparation, and biological properties of neolambertellin” (Bioorg Med Chem Lett, 2005) come the findings set out here.

The subject of this assay is Bipolaris oryzae. Nature of the assay: Inhibitory concentration against hyphal germination of Cochlibolus miyabeanus. The format is functional, organism-based.

The structures appear in SMILES notation. In brackets after ≈: the same amount, converted by molar mass.

Consider `Cc1cc2cc(O)c3c(O)cccc3c2oc1=O`, for which half-maximal inhibition (IC50) required 100 µg/mL (≈ 413 µM).

By IC50 is commonly meant the concentration that gives 50% inhibition. Low values mean greater potency in that assay, high ones weaker potency in that assay.
